# “And” between values parts separate entries of the source, which are not always exact repeats. Equal entries are not always repeated. “Also recorded” adds a separate entry of the source.
# How the values were obtained:
# [1] = Formation of formazan dyes: NADH and 1-methoxy PMS, absence of malate (TABLE 15); assay type: biochemical
# [2] = tested on: oral lavage; test: Formation of formazan dyes: oral lavage and 1-Methoxy PMS, absence of malate (TABLE 19); assay type: biochemical, human
# [3] = Formation of formazan dyes: NADH, malate and 1-methoxy PMS (TABLE 16); assay type: biochemical
# [4] = Formation of formazan dyes: control buffer and 1-Methoxy PMS, absence of malate (TABLE 21); assay type: biochemical
# [5] = Formation of formazan dyes: control buffer, malate and 1-Methoxy PMS (TABLE 22); assay type: biochemical
# [6] = tested on: Malate dehydrogenase and diaphorase; test: Formation of formazan dyes: Malate dehydrogenase, diaphorase and malate (TABLE 10); assay type: biochemical, pig heart
# [7] = tested on: diaphorase; test: Formation of formazan dyes: only diaphorase and malate (TABLE 14); assay type: biochemical, Clostridium kluyveri; details: mean of three experiments
# [8] = tested on: oral lavage; test: Formation of formazan dyes: oral lavage, malate and diaphorase (TABLE 12); assay type: biochemical, human; details: oral lavage, malate and diaphorase
# [9] = tested on: oral lavage; test: Formation of formazan dyes: oral lavage and diaphorase, not malate (TABLE 11); assay type: biochemical, human
# [10] = tested on: diaphorase; test: Formation of formazan dyes: NADH, diaphorase and malate (TABLE 8); assay type: biochemical, Clostridium kluyveri; details: NADH, diaphorase and malate
# [11] = tested on: diaphorase; test: Formation of formazan dyes: NADH and diaphorase, absence of malate (TABLE 7); assay type: biochemical, Clostridium kluyveri; details: NADH and diaphorase, absence of malate
# [12] = biological target: T1, Malate dehydrogenase (Sus scrofa, UniProt P00346); test: Formation of formazan dyes: Malate dehydrogenase and 1-Methoxy PMS, absence of malate (TABLE 17); assay type: biochemical, pig heart; design: L-malate dehydrogenase (pig heart); purchased Sigma-Aldrich 10127248001 / 10127914001
# T1 sequence (P00346 25-338): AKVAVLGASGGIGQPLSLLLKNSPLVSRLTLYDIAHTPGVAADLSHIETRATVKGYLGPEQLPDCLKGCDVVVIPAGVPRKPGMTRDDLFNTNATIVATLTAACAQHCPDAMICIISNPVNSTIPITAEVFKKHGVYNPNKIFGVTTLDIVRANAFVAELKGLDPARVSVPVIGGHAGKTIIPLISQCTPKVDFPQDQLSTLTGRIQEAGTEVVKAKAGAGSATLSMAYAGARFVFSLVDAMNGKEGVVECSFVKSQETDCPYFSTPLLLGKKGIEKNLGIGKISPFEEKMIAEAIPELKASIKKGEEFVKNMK
# [13] = tested on: diaphorase; test: Formation of formazan dyes: only diaphorase, not malate (TABLE 13); assay type: biochemical, Clostridium kluyveri; details: mean of three experiments
# [14] = tested on: Malate dehydrogenase and diaphorase; test: Formation of formazan dyes: Malate dehydrogenase and diaphorase, absence of malate (TABLE 9); assay type: biochemical, pig heart
substance,measurement,setting,value
2-Benzothiazoryl-3-(4-carboxy-2-methoxyphenyl)-5-[4-(2-sulfoethylcarbamoyl)phenyl]-2H-tetrazolium [WST-4],"Absorbance, formation of formazan dyes (Means)",[1],1.52 and 1.57 and 1.64
same,"Absorbance, formation of formazan dyes (Means)",[2],0.78 and 1.07 and 1.15 and 1.22
same,"Absorbance, formation of formazan dyes (Means)",[3],1.32 and 1.31 and 1.29 and 1.30
same,"Absorbance, formation of formazan dyes (Means)",[4],0.30 and 0.34 and 0.43 and 0.44
same,Means absorbance 0 h,[5],0.13
same,Means absorbance 1 h,[5],0.13
same,Means absorbance 2 h,[5],0.13
same,Means absorbance 3 h,[5],0.15
same,"Formation of formazan dyes, absorbance, Means 0 h","[6]; Malate dehydrogenase, diaphorase and malate, 0 h",0.51
same,"Formation of formazan dyes, absorbance, Means 1 h","[6]; Malate dehydrogenase, diaphorase and malate, 1 h",0.81
same,"Formation of formazan dyes, absorbance, Means 2 h","[6]; Malate dehydrogenase, diaphorase and malate, 2 h",0.99
same,"Formation of formazan dyes, absorbance, Means 3 h","[6]; Malate dehydrogenase, diaphorase and malate, 3 h",1.13
same,"Formation of formazan dyes, absorbance, Means 4 h","[6]; Malate dehydrogenase, diaphorase and malate, 4 h",1.25
same,"Formation of formazan dyes, absorbance, Means 6 h","[6]; Malate dehydrogenase, diaphorase and malate, 6 h",1.43
same,"Formation of formazan dyes, absorbance, Means 8 h","[6]; Malate dehydrogenase, diaphorase and malate, 8 h",1.57
same,"Formation of formazan dyes, absorbance, Means 10 h","[6]; Malate dehydrogenase, diaphorase and malate, 10 h",1.68
same,"Formation of formazan dyes, absorbance, Means 12 h","[6]; Malate dehydrogenase, diaphorase and malate, 12 h",1.75
same,conversion to reduced formazan dyes,"[6]; malate dehydrogenase, diaphorase and malate (TABLE 10)",converted to reduced formazan dyes in a time-dependent fashion; also recorded: able to catalyze the reduction
same,"Absorbance, formation of formazan dyes (Means)",[7]; 0 h,0.08
same,"Absorbance, formation of formazan dyes (Means)",[7]; 1 h,0.10
same,"Absorbance, formation of formazan dyes (Means)",[7]; 2 h,0.12
same,"Absorbance, formation of formazan dyes (Means)",[7]; 3 h,0.14
same,"Absorbance, formation of formazan dyes (Means)",[7]; 4 h,0.16
same,"Absorbance, formation of formazan dyes (Means)",[7]; 6 h,0.19
same,"Absorbance, formation of formazan dyes (Means)",[7]; 8 h,0.23
same,"Absorbance, formation of formazan dyes (Means)",[7]; 10 h,0.26
same,"Absorbance, formation of formazan dyes (Means)",[7]; 12 h,0.27
same,"Formation of formazan dyes, absorbance, Means 0 h",[8]; 0 h,0.44
same,"Formation of formazan dyes, absorbance, Means 1 h",[8]; 1 h,0.56
same,"Formation of formazan dyes, absorbance, Means 2 h",[8]; 2 h,0.63
same,"Formation of formazan dyes, absorbance, Means 3 h",[8]; 3 h,0.67
same,"Formation of formazan dyes, absorbance, Means 4 h",[8]; 4 h,0.77
same,"Formation of formazan dyes, absorbance, Means 6 h",[8]; 6 h,0.83
same,"Formation of formazan dyes, absorbance, Means 8 h",[8]; 8 h,0.89
same,"Formation of formazan dyes, absorbance, Means 10 h",[8]; 10 h,0.96
same,"Formation of formazan dyes, absorbance, Means 12 h",[8]; 12 h,0.95
same,"Formation of formazan dyes, absorbance, Means 0 h","[9]; oral lavage and diaphorase, not malate, 0 h",0.55
same,"Formation of formazan dyes, absorbance, Means 1 h","[9]; oral lavage and diaphorase, not malate, 1 h",0.74
same,"Formation of formazan dyes, absorbance, Means 2 h","[9]; oral lavage and diaphorase, not malate, 2 h",0.76
same,"Formation of formazan dyes, absorbance, Means 3 h","[9]; oral lavage and diaphorase, not malate, 3 h",0.80
same,"Formation of formazan dyes, absorbance, Means 4 h","[9]; oral lavage and diaphorase, not malate, 4 h",0.78
same,"Formation of formazan dyes, absorbance, Means 6 h","[9]; oral lavage and diaphorase, not malate, 6 h",0.88
same,"Formation of formazan dyes, absorbance, Means 8 h","[9]; oral lavage and diaphorase, not malate, 8 h",0.90
same,"Formation of formazan dyes, absorbance, Means 10 h","[9]; oral lavage and diaphorase, not malate, 10 h",0.87
same,"Formation of formazan dyes, absorbance, Means 12 h","[9]; oral lavage and diaphorase, not malate, 12 h",0.93
same,reduction to formazan dyes by pooled oral lavage,"[9]; pooled oral lavage of high bleeder group, diaphorase, no added malate (TABLE 11)",partially reduced to formazan dyes
same,"Formation of formazan dyes, absorbance, Means 0 h",[10]; 0 h,1.92
same,"Formation of formazan dyes, absorbance, Means 1 h",[10]; 1 h,1.91
same,"Formation of formazan dyes, absorbance, Means 2 h",[10]; 2 h,1.91
same,"Formation of formazan dyes, absorbance, Means 3 h",[10]; 3 h,1.89
same,"Formation of formazan dyes, absorbance, Means 4 h",[10]; 4 h,1.97
same,"Formation of formazan dyes, absorbance, Means 6 h",[10]; 6 h,1.94
same,"Formation of formazan dyes, absorbance, Means 8 h",[10]; 8 h,1.92
same,"Formation of formazan dyes, absorbance, Means 10 h",[10]; 10 h,1.88
same,"Formation of formazan dyes, absorbance, Means 12 h",[10]; 12 h,1.83
same,"Formation of formazan dyes, absorbance, Means 0 h",[11]; 0 h,1.96
same,"Formation of formazan dyes, absorbance, Means 1 h",[11]; 1 h,2.01
same,"Formation of formazan dyes, absorbance, Means 2 h",[11]; 2 h,2.04
same,"Formation of formazan dyes, absorbance, Means 3 h",[11]; 3 h,2.08
same,"Formation of formazan dyes, absorbance, Means 4 h",[11]; 4 h,2.20
same,"Formation of formazan dyes, absorbance, Means 6 h",[11]; 6 h,2.25
same,"Formation of formazan dyes, absorbance, Means 8 h",[11]; 8 h,2.29
same,"Formation of formazan dyes, absorbance, Means 10 h",[11]; 10 h,2.30
same,"Formation of formazan dyes, absorbance, Means 12 h",[11]; 12 h,2.32
same,"Absorbance, formation of formazan dyes (Means)",[12],0.27 and 0.29 and 0.31 and 0.38
same,reduction by malate dehydrogenase alone,[12],did not catalyze the reduction
same,"Absorbance, formation of formazan dyes (Means)",[13]; 0 h,0.22
same,"Absorbance, formation of formazan dyes (Means)",[13]; 1 h,0.35
same,"Absorbance, formation of formazan dyes (Means)",[13]; 2 h,0.40
same,"Absorbance, formation of formazan dyes (Means)",[13]; 3 h,0.40
same,"Absorbance, formation of formazan dyes (Means)",[13]; 4 h,0.38
same,"Absorbance, formation of formazan dyes (Means)",[13]; 6 h,0.30
same,"Absorbance, formation of formazan dyes (Means)",[13]; 8 h,0.32
same,"Absorbance, formation of formazan dyes (Means)",[13]; 10 h,0.36
same,"Absorbance, formation of formazan dyes (Means)",[13]; 12 h,0.39
same,"Formation of formazan dyes, absorbance, Means 0 h","[14]; Malate dehydrogenase and diaphorase, absence of malate, 0 h",0.51
same,"Formation of formazan dyes, absorbance, Means 1 h","[14]; Malate dehydrogenase and diaphorase, absence of malate, 1 h",0.83
same,"Formation of formazan dyes, absorbance, Means 2 h","[14]; Malate dehydrogenase and diaphorase, absence of malate, 2 h",0.99
same,"Formation of formazan dyes, absorbance, Means 3 h","[14]; Malate dehydrogenase and diaphorase, absence of malate, 3 h",1.06
same,"Formation of formazan dyes, absorbance, Means 4 h","[14]; Malate dehydrogenase and diaphorase, absence of malate, 4 h",1.17
same,"Formation of formazan dyes, absorbance, Means 6 h","[14]; Malate dehydrogenase and diaphorase, absence of malate, 6 h",1.24
same,"Formation of formazan dyes, absorbance, Means 8 h","[14]; Malate dehydrogenase and diaphorase, absence of malate, 8 h",1.35
same,"Formation of formazan dyes, absorbance, Means 10 h","[14]; Malate dehydrogenase and diaphorase, absence of malate, 10 h",1.44
same,"Formation of formazan dyes, absorbance, Means 12 h","[14]; Malate dehydrogenase and diaphorase, absence of malate, 12 h",1.47
same,reduction of tetrazolium dye in the absence of substrate malate,[14]; malate dehydrogenase and diaphorase (TABLE 9),partially reduced

# — patent US20180320217A1, “METHODS FOR SAMPLING AND MEASURING ORAL LAVAGE PROTEINS” (The Procter & Gamble Company, priority 2017, published 2018)
